Test results published in US6630454B2, “Method and pharmaceutical composition for the treatment of cancer” (priority 2001, dated 2003).

Assays:
[1] = clinical studies, review (DeVita et al., 1993); cited from earlier work
[2] = system: PANC-1, C6, MCF-7, U2OS and HT1080 cells
Method: Studies similar in general to those outlined in the previous section, were conducted with five cell lines selected for this task (PANC-1, C6, MCF-7, U2OS and HT1080), increasing the length of the experiment to 48 hours. The studies were done with DOX and with Vinblastine (VIN or VLB).

[3] = system: C6 and PANC-1 cells; set-up: dose or concentration left out as unconfirmed; details: […] μM fluoxetine alone, 24 hours
[4] = highest safe dose used for accepted indications; cited from earlier work

Structure (SMILES): CC/C(=C(\c1ccccc1)c1ccc(OCCN(C)C)cc1)c1ccccc1 [tamoxifen]
- side effects / dose-limiting toxicity when used as chemosensitizer [1]: attributed to the inherent toxicity of the chemosensitizer

Structure (SMILES): CN1CCN(CCCN2c3ccccc3Sc3ccc(C(F)(F)F)cc32)CC1 [trifluoperazine]
- side effects / dose-limiting toxicity when used as chemosensitizer [1]: attributed to the inherent toxicity of the chemosensitizer

Structure (SMILES): CNCCC(Oc1ccc(C(F)(F)F)cc1)c1ccccc1 (centres unmarked) [fluoxetine, N-methyl 3-(p-trifluoromethylphenoxy)-3-phenylpropylamine]
- potentiation of the cytotoxic effect of the chemotherapeutic drug [2]: potentiates the cytotoxic effect
- effect of fluoxetine alone on cell survival [3]: does not affect cell survival at all
- highest safety limit [4]: 15 µM
